“Also recorded” adds a separate entry of the source.
Tests used:
[1] = system: breast cancer cell line MDA-MB-231; assay: Tumor growth of PD-L1+ MDA-MB-231 breast cancer model in non-HLA matched Hu-CD34 NSG mice; type: in vivo, mouse; conditions: for tumor growth of MDA-MB-231 tumors: growth curves over 21 days, cisplatin i.v. about 2 mg/kg Q7dx2
Description: First, to determine if the checkpoint inhibitor pembrolizumab (Keytruda) is efficacious in the subject non-HLA matched PDX humanized NSG model, a PDX huNSG model was established according to the methods of the invention. […] This cell line expresses very high levels of PD-L1 on the tumor cell surface that can bind to PD-1 on T-cells and induce anergy—about 94.3% of the MDA-MB-231 cells expressed PD-L1. The tumor-engrafted humanized NSG mice were then treated either with vehicle, Cisplatin, or Prembrolizumab (Keytruda).
Tumor growth curves over 21 days were obtained for a negative control/vehicle group, and two treatment groups using cisplatin and pembrolizumab (Keytruda), respectively, against the MDA-MB-231 PDX. Specifically, cisplatin was administered i.v. at a dose of about 2 mg/kg body weight, Q7d×2 (every 7 days, 2 total doses). Pembrolizumab (Keytruda) was administered i.p. at a dose of about 5-10 mg/kg body weight, Q5d×4 (every 5 days, 4 total doses). Vehicle (Saline) was administered i.p., Q5d×4.
At the termination of the growth study, peripheral blood of the experimental mice were collected and assayed for human CD19^+ B cells and human CD4^+ and CD8^+ T-cells.
Tumors were also collected and assayed for human CD4^+ and CD8^+ infiltrating T-cells.

[2] = system: breast cancer BR1126 PDX; assay: Tumor growth of PD-L1+ TNBC BR1126 breast cancer PDX in non-HLA matched Hu-CD34 NSG mice; type: in vivo, mouse; conditions: for tumor growth compared to the vehicle control: growth curves over 21 days, cisplatin i.v. about 2 mg/kg Q7dx3, Keytruda i.p. about 5-10 mg/kg Q5dx4
Description: Specifically, humanized NSG mice were engrafted with 5×10^6 of non-HLA matched PD-L1-positive breast cancer cell line BR1126 cells per mouse via s.c. inoculation. This can be done with the presence of matrigel. About 56.9% of the BR1126 cells expressed PD-L1.
Tumor growth curves over 21 days were obtained for a negative control/vehicle group, and two treatment groups using cisplatin and pembrolizumab (Keytruda), respectively, against the BR1126 PDX. Specifically, cisplatin was administered i.v. at a dose of about 2 mg/kg body weight, Q7d×3 (every 7 days, 3 total doses). Pembrolizumab (Keytruda) was administered i.p. at a dose of about 5-10 mg/kg body weight, Q5d×4 (every 5 days, 4 total doses). Vehicle (Saline) was administered i.p., Q5d×4.
Tumors from the Keytruda-treated mice were collected at the end of the study and examined for lymphocyte infiltration.

[3] = system: CD45+CD8+ infiltrating T lymphocytes in PDX tumor samples; assay: Immuno-staining of treated PDX tumor samples for CD45+CD8+ infiltrating T lymphocytes; type: in vivo, mouse; conditions: compared to chemotherapy alone
Description: In a similar experiment, immuno-staining was conducted on PDX tumor samples treated by chemotherapy alone, anti-PD1 agent Keytruda, and anti-CTLA4 agent ipilimumab, for the presence of CD45^+CD8^+ infiltrating T lymphocytes.

[4] = system: non-small-cell lung cancer, melanoma, and renal-cell cancer; conditions: 296 patients; cited from earlier work
[5] = system: colon cancer CN1572P5 PDX; assay: Tumor growth of colon cancer CN1572P5 PDX in non-HLA matched Hu-CD34 NSG mice; type: in vivo, mouse; conditions: tumor growth curves over 21 days; 5-FU i.v. about 20 mg/kg Q7dx2; Avastin i.p. about 10 mg/kg twice a week, 5 doses
Description: To test whether the subject Hu-CD34 NSG™ mice with non-HLA matched PDX can be used to evaluate drug efficacy against the PDX, using clinically relevant standard-of-care (SOC) treatments, tumor growth curves over 21 days were obtained for a negative control/vehicle group, and two treatment groups using 5-FU and Avastin, respectively, against the colon cancer CN1572P5 PDX. Specifically, 5-FU was administered i.v. at a dose of about 20 mg/kg body weight, Q7d×2 (every 7 days, 2 total doses). Avastin was administered i.p. at a dose of about 10 mg/kg body weight, twice a week, 5 total doses. Vehicle (D5W) was administered i.v., Q7d×3.

[6] = system: lung cancer LG1306 PDX; assay: Tumor growth of PD-L1+ LG1306 lung cancer PDX in non-HLA matched Hu-CD34 NSG mice; type: in vivo, mouse
Description: Specifically, humanized NSG mice were engrafted with 5×10^6 of non-HLA matched PD-L1-positive PDX lung cancer cell line LG1306 per mouse. About 89.1% of the LG1306 cells expressed PD-L1.
Tumor growth curves over 24 days were obtained for a negative control/vehicle group, and two treatment groups using pembrolizumab (Keytruda), with or without the anti-mitotic chemotherapeutic agent Decotaxol, against the LG1306 PDX. Specifically, Decetaxol, when present, was administered i.v. at a dose of about 10 mg/kg body weight, Q7d×4 (every 7 days, 4 total doses). Pembrolizumab (Keytruda) was administered i.p. at a dose of about 5 mg/kg body weight, Q5d×6 (every 5 days, 6 total doses). Vehicle (Saline) was administered i.p., Q5d×6.

[7] = Keytruda i.p. about 5-10 mg/kg Q5dx4

Molecule	tumor growth of MDA-MB-231 tumors [1, 7]	tumor growth compared to the vehicle control [2]	presence of CD45+CD8+ infiltrating T lymphocytes in PDX tumor samples [3]	efficacy against the non-HLA matched colon cancer PDX (tumor volume) [5]	other results
N.N.[Cl][Pt][Cl] [Cisplatin, cisplatin]	only marginally reduced the growth rate	significantly reduced tumor growth			
ipilimumab: anti-CTLA4 agent; FDA-approved CTLA-4 inhibitor for treating melanoma			strong presence		
nivolumab: fully human IgG4 monoclonal antibody against PD-1					clinical response [4]: complete or partial responses
Avastin: clinically relevant standard-of-care (SOC) anti-cancer drug				effective	
O=c1[nH]cc(F)c(=O)[nH]1 [5-FU]				effective	
Keytruda: anti-PD-1 antibody drug; highly selective, humanized IgG4-kappa monoclonal antibody against PD-1	delayed tumor growth significantly	significantly reduced tumor growth	strong presence		time after start of treatment to significant tumor growth delay [1, 7]: ≤ 2 weeks; human T and B cells in peripheral blood and infiltrating T cells (TILs) in tumors versus other treatment groups ([1]; at termination of the growth study): absence of additional TILs; mice not responding ([6]; Keytruda alone): one of 10; tumor growth of LG1306 PDX compared to vehicle-treated controls ([6]; growth curves over 24 days, Keytruda i.p. about 5 mg/kg Q5dx6, Docetaxel i.v. about 10 mg/kg Q7dx4, all mice): reduced growth; also recorded: effective; tumor growth, non-responding mouse taken out of the calculations ([6]; one Keytruda non-responder excluded): significant decrease in tumor growth; tumor lymphocyte infiltration compared to the vehicle treated mice ([2]; tumors collected at the end of the study): did not increase tumor infiltration
